Measurements: article PMC3290551, “Core Site-Moiety Maps Reveal Inhibitors and Binding Mechanisms of Orthologous Proteins by Screening Compound Libraries” (PLoS ONE, 2012)
“And” between values parts separate entries of the source, which are not always exact repeats. Equal values may be shown once. Read-outs that look alike come from different tables or passages of the source.

What was measured:
Assay type in all cases: biochemical
[1] = target: T1, H. pylori shikimate kinase (HpSK) (Helicobacter pylori, UniProt P56073); assay: Shikimate kinase coupled enzyme inhibition assay (HpSK); conditions: for Inhibitory effect against shikimate kinase (in words): HpSK; for IC50: 1.6 mM shikimic acid, 2.5 mM ATP, 25°C, pH 7.5
T1 construct: made in house; host or cells: Escherichia coli (stated for the mutants, which followed the wild-type procedure)

[2] = target: T2, M. tuberculosis shikimate kinase (MtSK) (Mycobacterium tuberculosis, UniProt P9WPY3); assay: Shikimate kinase coupled enzyme inhibition assay (MtSK); conditions: for Inhibitory effect against shikimate kinase (in words): MtSK; for IC50: SK species: Mt, 1.6 mM shikimic acid, 2.5 mM ATP, 25°C, pH 7.5
T2 construct: His6 (N); made in house; host or cells: E. coli BL-21 (DE3)

[3] = target: T1, H. pylori shikimate kinase (HpSK); assay: Analysis of inhibitor kinetics / inhibitor modality (HpSK); conditions: for Inhibitor modality with respect to ATP / Inhibitor modality with respect to shikimate: HpSK; for Ki: SK species: Hp
Procedure: (§1) Shikimate kinase activity was determined by coupling the release of ADP from the SK-catalyzed reaction to the oxidation of NADH using pyruvate kinase (EC 2.7.1.40) and lactate dehydrogenase (EC 1.1.1.27) as coupling enzymes. Shikimate-dependent oxidation of NADH was measured by monitoring the decrease in A340 (ε = 6,200 M^−1 cm^−1). The assay was carried out at 25°C in a mixture of 100 mM Tris-HCl buffer, pH 7.5, 50 mM KCl, 5 mM MgCl2, 1.6 mM shikimic acid, 2.5 mM ATP, 1 mM phosphoenolpyruvate (PEP), 0.1 mM NADH, 2.5 units of pyruvate kinase per ml, and 2.7 units of lactate dehydrogenase per ml. All assays were conducted in a 96-well microplate and analyzed with a spectrophotometer (FLUOstar OPTIMA, BMG LABTECH).
(§2) After the preliminary screening, the inhibitor modality was determined by measuring the effects of inhibitor concentrations on the enzymatic activity as a function of substrate concentration. In the inhibition experiment in which the ATP concentration was fixed at 2.5 mM, shikimate was a varied substrate (0.06, 0.12, 0.24, 0.48, and 0.96 mM) when the concentration of inhibitor was varied from 0 to 50 µM. In parallel, in the inhibition experiment in which the shikimate concentration was fixed at 1.6 mM, ATP was a varied substrate (0.06, 0.12, 0.24, 0.48, and 0.96 mM) when the concentration of inhibitor was varied from 0 to 50 µM. A nonlinear least square-fitting algorithm was applied to the absorbance data to determine the kinetic mechanism data.

[4] = target: T2, M. tuberculosis shikimate kinase (MtSK); assay: Analysis of inhibitor kinetics / inhibitor modality (MtSK); conditions: for Inhibitor modality with respect to ATP / Inhibitor modality with respect to shikimate: MtSK; for Ki: SK species: Mt
Procedure: as §1, §2

[5] = ATP varied, shikimate fixed at 1.6 mM, read-out: αKi, ATP
[6] = shikimate varied, ATP fixed at 2.5 mM, read-out: αKi, SKM

T1 sequence (P56073 whole entry): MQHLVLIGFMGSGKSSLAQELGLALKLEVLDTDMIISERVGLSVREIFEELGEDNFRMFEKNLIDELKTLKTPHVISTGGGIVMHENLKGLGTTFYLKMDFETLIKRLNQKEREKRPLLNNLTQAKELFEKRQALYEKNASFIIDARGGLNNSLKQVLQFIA
T2 sequence (P9WPY3 whole entry): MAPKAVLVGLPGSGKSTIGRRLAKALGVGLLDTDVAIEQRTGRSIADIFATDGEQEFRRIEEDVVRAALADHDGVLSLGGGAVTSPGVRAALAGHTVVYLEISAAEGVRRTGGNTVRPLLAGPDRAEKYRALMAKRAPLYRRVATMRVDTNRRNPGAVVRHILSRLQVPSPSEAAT

O=C(Nc1ccc(C(=O)Nc2ccc3c(O)cc(S(=O)(=O)O)cc3c2)cc1)c1ccccc1 [NSC37215]
Inhibitory effect against shikimate kinase (in words) [1]: lost the inhibitory
IC50 ([1]; IC50, SK species: Hp): > 100 µM
Inhibitory effect against shikimate kinase (in words) [2]: lost the inhibitory
IC50 [2]: > 100 µM

Nc1ccc2c(O)c(/N=N/c3ccc([N+](=O)[O-])cc3)c(S(=O)(=O)O)cc2c1 [NSC45547]
IC50 ([1]; SK species: Hp): ≤ 10 µM and 7.8 µM

Nc1ccc2c(O)c(N=Nc3ccc4c(O)cc(S(=O)(=O)O)cc4c3)c(S(=O)(=O)O)cc2c1 [NSC162535]
Inhibitor modality with respect to ATP [3]: competitive inhibitors of ATP
Inhibitor modality with respect to shikimate [3]: competed with shikimate
Ki ([3]; read-out: αKi, ATP, ATP varied, shikimate fixed at 1.6 mM): 1.9 µM
Ki ([3]; read-out: αKi, SKM, shikimate varied, ATP fixed at 2.5 mM): 1.8 µM
Inhibitor modality with respect to ATP [4]: competitive inhibitors of ATP
Inhibitor modality with respect to shikimate [4]: competed with shikimate
Ki [4, 5]: 0.2 µM
Ki [4, 6]: 0.6 µM

O=C(NNC(=O)C1c2ccccc2Oc2ccccc21)c1cccc([N+](=O)[O-])c1 [RH00037]
IC50 ([1]; IC50, SK species: Hp): 23.8 µM
IC50 [2]: < 100 µM

O=C(Nc1ccc2c(O)c(/N=N/c3ccc4c(O)cc(S(=O)(=O)O)cc4c3)c(S(=O)(=O)O)cc2c1)c1ccccc1 [NSC45609]
IC50 ([1]; SK species: Hp): ≤ 10 µM and 7 µM

N=C(NO)c1ccc(Oc2cc(Cl)cc(Cl)c2)c([N+](=O)[O-])c1 [SPB01099]
IC50 ([1]; SK species: Hp): < 100 µM
IC50 [2]: < 100 µM

O=C(NNC(=O)C1c2ccccc2Oc2ccccc21)c1cccc(F)c1 [RH00016]
IC50 ([1]; IC50, SK species: Hp): 40.2 µM
IC50 [2]: < 100 µM

O=C(Nc1ccc2c(O)cc(S(=O)(=O)O)cc2c1)Nc1ccc2c(O)cc(S(=O)(=O)O)cc2c1 [NSC45174]
IC50 ([1]; IC50, SK species: Hp): ≤ 10 µM and 7.8 µM
IC50 [2]: ≤ 10 µM and 2.8 µM

O=C1Nc2ccc(I)cc2/C1=C/c1cc(Br)c(O)c(Br)c1 [GW5074, reference compound]
Inhibitory effect against shikimate kinase (in words) [1]: showed inhibitory effects
IC50 ([1]; IC50, SK species: Hp): 31.4 µM
Inhibitory effect against shikimate kinase (in words) [2]: showed inhibitory effects
IC50 [2]: 29.6 µM

O=S(=O)(O)c1cc(O)c2c(O)c(N=Nc3cccc4ccccc34)c(S(=O)(=O)O)cc2c1 [NSC45208]
Inhibitory effect against shikimate kinase (in words) [1]: lost the inhibitory
IC50 ([1]; IC50, SK species: Hp): > 100 µM
Inhibitory effect against shikimate kinase (in words) [2]: lost the inhibitory
IC50 [2]: > 100 µM

Cc1cc(N=Nc2ccc(N=Nc3ccc(N=Nc4ccc(O)c(C(=O)O)c4)cc3)c(S(=O)(=O)O)c2C)c(N)cc1N [NSC45611]
IC50 ([1]; IC50, SK species: Hp): ≤ 10 µM and 4.8 µM
IC50 [2]: ≤ 10 µM and 1.5 µM
Inhibitor modality with respect to ATP [3]: competitive inhibitors of ATP
Inhibitor modality with respect to shikimate [3]: competed with shikimate
Ki ([3]; αKi, ATP, ATP varied, shikimate fixed at 1.6 mM): 1.1 µM
Ki ([3]; αKi, SKM, shikimate varied, ATP fixed at 2.5 mM): 1.7 µM
Inhibitor modality with respect to ATP [4]: competitive inhibitors of ATP
Inhibitor modality with respect to shikimate [4]: competed with shikimate
Ki [4, 5]: 0.3 µM
Ki [4, 6]: 0.7 µM
